The record followed here is ChEMBL document CHEMBL3751786, “Toxocara canis: Larvicidal activity of fatty acid amides” (Bioorg Med Chem Lett, 2016).

The subject of series [1] is Toxocara canis. Briefly: Larvicidal activity against Toxocara canis larvae at 1 mg/ml after 48 hrs by trypan blue assay relative to control. It is filed as functional.
In series [2] the test system is Toxocara canis. Briefly: Larvicidal activity against Toxocara canis larvae infected in BALB/c mouse at 1 mg/ml after 12 hrs. In kind it is functional.
The test system of series [3] is Toxocara canis. Briefly: Larvicidal activity against Toxocara canis larvae infected in BALB/c mouse at 0.05 mg/ml after 12 hrs. It is filed as functional.
Series [4] can be described thus: Cytotoxicity against C57BL/6 mouse peritoneal macrophages at 0.025 to 0.05 mg/ml after 48 hrs by LDH release assay. It is filed as cell-based. The following applies: peritoneal macrophage cell. On the technique in general: Release of lactate dehydrogenase indicates damage to the cell membrane.
A short description of series [5]: Cytotoxicity against C57BL/6 mouse peritoneal macrophages at 0.025 to 0.05 mg/ml after 48 hrs by MTT assay. It is filed as cell-based, Peritoneal macrophage cell. The note with it: read-out: MLC.
Series [6] concerns Toxocara canis. As to the kind of experiment: Larvicidal activity against Toxocara canis larvae infected in BALB/c mouse at 40 mg/kg after 12 hrs. In kind it is functional, organism-based.

Active and inactive are the calls of the source. The calls are words filed in the database; no cut-off is given here.

In turn, `CCCCC/C=C\C/C=C\CCCCCCCC(=O)N[C@H](C)c1ccccc1` showed an Activity in the series with Toxocara canis [1] of 100%. Also, in the series on Toxocara canis [2], the outcome was Active.
`CCCCCCCC/C=C\CCCCCCCC(=O)N[C@H](C)c1ccccc1`: the Activity with Toxocara canis [1] was 100%. In addition, the result in the series with Toxocara canis [2] was Active.
As to `CCCCCC[C@@H](O)C/C=C\CCCCCCCC(=O)NN1CCCC1`, the Activity in the series on Toxocara canis [1] was determined as 100%. In addition, the outcome in the series on Toxocara canis [2] was Active.
In the series on Toxocara canis [1], `CCCCCC[C@@H](O)C/C=C\CCCCCCCC(=O)NCc1ccccc1` showed an Activity of 100%. Also, the outcome with Toxocara canis [2] was Active.
In the same order, the values of `CCCCCCCCCCCCCCCCCC(=O)N[C@H](C)c1ccccc1` are 100% and “Active”.
In the series with Toxocara canis [1], `CCCCCCCCCCCCCCCC(=O)N[C@H](C)c1ccccc1` had an Activity of 100%. The outcome with Toxocara canis [2] was Active.
Take `CCCCC/C=C\C/C=C\CCCCCCCC(=O)NN1CCCC1`: the figures for the Activity (with Toxocara canis [1]; in series [4]) were 100% and 27%, respectively. The result with Toxocara canis [3] was Active. Besides, the MCC at 48 h in series [5] was found to be 50 µg/mL.
For `CCCCC/C=C\C/C=C\CCCCCCCC(=O)N[C@@H](C)c1ccccc1`, the Activity with Toxocara canis [1] came out at 100%. The outcome with Toxocara canis [2] was Active.
Turning to `CCCCCCCC/C=C\CCCCCCCC(=O)NC(C)c1ccccc1` (centres undefined), the Activity in the series on Toxocara canis [1] is 100%. For the same molecule, in the series with Toxocara canis [2], the outcome was Active.
Taken in the same sequence, the figures for `CCCCCCCC/C=C\CCCCCCCC(=O)N[C@@H](C)c1ccccc1` were 100% and “Active”.
`CCCCCC[C@@H](O)C/C=C\CCCCCCCC(=O)N[C@@H](C)c1ccccc1`: the Activity with Toxocara canis [1] was found to be 100%. Moreover, in the series with Toxocara canis [2], the result was Active.
For `CCCSc1ccc2[nH]c(NC(=O)OC)nc2c1` [ALBENDAZOLE], the Activity with Toxocara canis [1] was 100%. In addition, the result in the series with Toxocara canis [6] was Active.
The molecule `CCCCCCCCCCCCCCCCCC(=O)N[C@@H](C)c1ccccc1` came in with an Activity in the series on Toxocara canis [1] of 100%. Besides, the outcome in the series with Toxocara canis [2] was Active.
In the series on Toxocara canis [1], `CCCCCC[C@@H](O)C/C=C\CCCCCCCC(=O)N[C@H](C)c1ccccc1` had an Activity of 100%. In the series with Toxocara canis [2], the outcome was Active.
`CCCCCC[C@@H](O)C/C=C\CCCCCCCC(=O)NN1CCOCC1` displayed an Activity in the series with Toxocara canis [1] of 100%. In addition, in the series with Toxocara canis [2], the outcome was Active.
For the molecule `CCCCCCCC/C=C\CCCCCCCC(=O)NN1CCOCC1`, the Activity in the series on Toxocara canis [1] is listed as 100%. Moreover, the result in the series on Toxocara canis [2] was Active.
